Reference: patent publication US20230373985A1 (Origenis Gmbh, priority 2020, published 2023)

Tests used:
[1] = molecular target: T1, wt human TYK2, catalytic site (Homo sapiens, UniProt P29597); test: HTRF KinEASE assay, TYK2; assay type: biochemical; settings: 1 μM ATP; read-out: IC50, Activity Toward TYK2
T1 construct: wt human TYK2, catalytic site; purchased SignalChem
T1 sequence (P29597 897-1176 limits assumed): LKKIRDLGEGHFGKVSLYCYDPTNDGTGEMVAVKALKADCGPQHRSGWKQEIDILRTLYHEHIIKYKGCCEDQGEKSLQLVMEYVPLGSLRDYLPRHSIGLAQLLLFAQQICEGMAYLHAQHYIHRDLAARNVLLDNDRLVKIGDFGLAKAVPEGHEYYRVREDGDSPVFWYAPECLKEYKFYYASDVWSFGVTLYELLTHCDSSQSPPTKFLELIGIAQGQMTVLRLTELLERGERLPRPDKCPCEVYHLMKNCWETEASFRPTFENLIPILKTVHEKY
Procedure, shortened: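 HTRF KinEASE-TK readout with 1 μM biotinylated TK substrate in 1× kinase buffer, ≥30 min at room temperature, then antibody/streptavidin-XL665 detection for 60 min. TYK2 at 2 nM with 1 μM ATP; JAK2 at 1 nM with 100 μM ATP. Analysis uses emission ratios.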

[2] = molecular target: T2, G2019S human LRRK2, catalytic site (Homo sapiens, UniProt Q5S007, G2019S); test: TR-FRET LanthaScreen Eu Kinase Binding Assay, LRRK2 G2019S; settings: LRRK2(G2019); one range stated for wt and G2019; read-out: IC50, Activity Toward LRRK2(G2019)
T2 construct: G2019S human LRRK2, catalytic site; purchased ThermoFisher
T2 sequence (Q5S007 970-2527 G2019S limits assumed): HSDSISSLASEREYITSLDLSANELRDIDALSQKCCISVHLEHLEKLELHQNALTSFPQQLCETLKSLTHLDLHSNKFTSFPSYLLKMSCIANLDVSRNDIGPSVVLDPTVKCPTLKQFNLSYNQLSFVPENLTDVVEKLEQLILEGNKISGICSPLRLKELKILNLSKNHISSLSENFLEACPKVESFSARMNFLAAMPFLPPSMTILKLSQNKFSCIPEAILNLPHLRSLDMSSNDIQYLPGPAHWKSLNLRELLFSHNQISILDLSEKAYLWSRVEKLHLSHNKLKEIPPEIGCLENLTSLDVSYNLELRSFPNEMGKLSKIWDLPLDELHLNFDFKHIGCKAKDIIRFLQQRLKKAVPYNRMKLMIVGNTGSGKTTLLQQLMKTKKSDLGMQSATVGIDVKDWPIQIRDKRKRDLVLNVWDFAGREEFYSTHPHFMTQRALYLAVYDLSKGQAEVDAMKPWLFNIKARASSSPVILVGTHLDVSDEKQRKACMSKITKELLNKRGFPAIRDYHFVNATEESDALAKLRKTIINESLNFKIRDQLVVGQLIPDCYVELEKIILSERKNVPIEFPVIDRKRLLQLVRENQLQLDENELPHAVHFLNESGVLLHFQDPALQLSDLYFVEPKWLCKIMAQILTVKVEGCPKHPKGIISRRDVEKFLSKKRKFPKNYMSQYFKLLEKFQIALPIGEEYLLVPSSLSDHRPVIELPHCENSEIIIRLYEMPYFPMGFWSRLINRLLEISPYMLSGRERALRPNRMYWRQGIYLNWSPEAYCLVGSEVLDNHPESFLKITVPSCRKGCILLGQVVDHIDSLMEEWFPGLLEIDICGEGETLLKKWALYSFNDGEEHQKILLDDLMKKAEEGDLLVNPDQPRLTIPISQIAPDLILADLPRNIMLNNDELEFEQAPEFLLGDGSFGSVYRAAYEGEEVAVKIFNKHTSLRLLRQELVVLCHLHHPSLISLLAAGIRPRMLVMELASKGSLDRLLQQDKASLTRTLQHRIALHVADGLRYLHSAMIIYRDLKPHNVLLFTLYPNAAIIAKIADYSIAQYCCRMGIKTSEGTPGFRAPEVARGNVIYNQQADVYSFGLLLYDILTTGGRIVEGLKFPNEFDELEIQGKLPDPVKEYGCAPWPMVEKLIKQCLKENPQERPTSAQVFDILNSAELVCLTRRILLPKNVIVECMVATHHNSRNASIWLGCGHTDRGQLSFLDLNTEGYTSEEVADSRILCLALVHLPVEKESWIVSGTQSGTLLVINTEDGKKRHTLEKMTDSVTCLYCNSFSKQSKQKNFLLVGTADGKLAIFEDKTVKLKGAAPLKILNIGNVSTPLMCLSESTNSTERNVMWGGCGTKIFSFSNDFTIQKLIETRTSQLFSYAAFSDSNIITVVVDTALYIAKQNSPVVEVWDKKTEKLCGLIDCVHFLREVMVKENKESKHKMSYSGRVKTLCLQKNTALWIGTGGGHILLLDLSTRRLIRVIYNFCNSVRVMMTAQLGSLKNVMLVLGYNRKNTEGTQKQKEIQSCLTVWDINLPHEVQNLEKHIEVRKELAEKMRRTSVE
Description: (§1) The basic protocol for TR-FRET LanthaScreen Eu Kinase Binding Assay inhibitor studies were performed as follows. LanthaScreen Kinase Binding Assays (ThermoFisher/USA) to evaluate inhibitors were performed by addition of 5 μL of test compound in corresponding DMSO dilutions/5 μl of kinase/antibody mixture, 5 μL of tracer into 384 well small volume plates. After incubation for 1 hour at room temperature, plates were read. Data analysis of emission ratios was according LanthaScreen Eu Kinase Binding Assay protocol.
(§2) Kinase and assay components were adjusted to final concentrations according to kit protocol. For LRRK2: 5 nM wt human LRRK2, catalytic site, or G2019S human LRRK2, catalytic site (ThermoFisher/USA), 2 nM Eu-Anti-GST Antibody, 10 nM Kinase Tracer 236 in 1× Kinase Buffer A. For NUAK1: 8 nM wt human NUAK1, full length (ThermoFisher/USA), 2 nM Eu-Anti-His Antibody, 5 nM Kinase Tracer 236 in 1× Kinase Buffer A.

[3] = molecular target: T3, wt human JAK1, catalytic site (Homo sapiens, UniProt P23458); test: HTRF KinEASE assay, JAK1; assay type: biochemical; settings: 2.5 μM ATP; read-out: IC50, Activity Toward JAK1
T3 construct: wt human JAK1, catalytic site; purchased ThermoFisher
T3 sequence (P23458 875-1153 limits assumed): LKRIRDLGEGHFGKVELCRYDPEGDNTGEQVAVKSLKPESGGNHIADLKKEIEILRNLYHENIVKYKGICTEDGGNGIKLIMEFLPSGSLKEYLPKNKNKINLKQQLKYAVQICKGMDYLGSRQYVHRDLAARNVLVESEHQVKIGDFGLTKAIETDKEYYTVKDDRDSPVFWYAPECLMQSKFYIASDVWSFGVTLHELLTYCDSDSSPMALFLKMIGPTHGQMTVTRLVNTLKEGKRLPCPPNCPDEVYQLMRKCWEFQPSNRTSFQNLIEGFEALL
Procedure, shortened: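 Two-step HTRF KinEASE assay: compound, kinase/biotinylated TK substrate and ATP were incubated at least 30 min at room temperature. Antibody plus streptavidin-XL665 was then added and plates were read after 60 min. Inhibition was derived from emission ratios according to the kit protocol.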

[4] = molecular target: T4, wt human LRRK2, catalytic site (Homo sapiens, UniProt Q5S007); test: TR-FRET LanthaScreen Eu Kinase Binding Assay, LRRK2 wt; settings: one range stated for wt and G2019, read-out: IC50, Activity Toward LRRK2(Wt)
T4 construct: 5 nM wt human LRRK2, catalytic site; purchased ThermoFisher
T4 sequence (Q5S007 970-2527 limits assumed): as the sequence (Q5S007 970-2527 G2019S limits assumed) above, with S1050G counted along it
Description: as §1, §2

IC50 [1] | IC50 [2] | IC50 [3] | IC50 [4] | SMILES
0.01 to 0.1 µM | 0.1 to 1 µM | 0.01 to 0.1 µM | 0.1 to 1 µM | Cc1c[n+]([O-])ccc1-c1ccc(Nc2cn(-c3c(Cl)cccc3Cl)nc2C(N)=O)cc1 [compound 267, 4-(4-((3-carbamoyl-1-(2,6-dichlorophenyl)-1H-pyrazol-4-yl)amino)phenyl)-3-methylpridine_1-oxide]
< 0.01 µM | 0.1 to 1 µM | 0.01 to 0.1 µM | 0.1 to 1 µM | CCn1nc(C(F)(F)F)nc1-c1ccc(Nc2cn(-c3c(F)cccc3F)nc2C(N)=O)cc1 [compound 302, 1-(2,6-difluorophenyl)-4-((4-(1-ethyl-3-(trifluoromethyl)-1H-1,2,4-triazol-5-yl)phenyl)amino)-1H-pyrazole-3-carboxamide]
< 0.01 µM | 0.1 to 1 µM | 0.01 to 0.1 µM | 0.1 to 1 µM | Cn1cc(C(F)(F)F)nc1-c1ccc(Nc2cn(-c3c(F)cccc3Cl)nc2C(N)=O)cc1 [compound 305, 1-(2-chloro-6-fluorophenyl)-4-((4-(1-methyl-4-(trifluoromethyl)-1H-imidazol-2-yl)phenyl)amino)-1H-pyrazole-3-carboxamide]
< 0.01 µM | 0.1 to 1 µM | 0.01 to 0.1 µM | 0.1 to 1 µM | NC(=O)c1nn(-c2c(Cl)cccc2Cl)cc1Nc1ccc(C(=O)N2CC[C@@H](F)C2)cc1 [compound 315, (R)-1-(2,6-dichlorophenyl)-4-((4-(3-fluoropyrrolidine-1-carbonyl)phenyl)amino)-1H-pyrazole-3-carboxamide]
< 0.01 µM | 0.1 to 1 µM | 0.01 to 0.1 µM | 0.1 to 1 µM | NC(=O)c1nn(-c2c(Cl)cccc2Cl)cc1Nc1ccc(C(=O)N2CC[C@H](F)C2)cc1 [compound 316, (S)-1-(2,6-dichlorophenyl)-4-((4-(3-fluoropyrrolidine-1-carbonyl)phenyl)amino)-1H-pyrazole-3-carboxamide]
0.01 to 0.1 µM | 0.1 to 1 µM | 0.01 to 0.1 µM | 0.1 to 1 µM | NC(=O)c1nn(-c2c(Cl)cccc2Cl)cc1Nc1ccc(-c2ccnnc2)cc1 [compound 321, 1-(2,6-dichlorophenyl)-4-((4-(pyridazin-4-yl)phenyl)amino)-1H-pyrazole-3-carboxamide]
0.01 to 0.1 µM | 0.1 to 1 µM | 0.01 to 0.1 µM | 0.1 to 1 µM | Cc1ncnn1-c1ccc(Nc2cn(-c3c(Cl)cccc3Cl)nc2C(N)=O)cc1 [compound 326, 1-(2,6-dichlorophenyl)-4-((4-(5-methyl-1H-1,2,4-triazol-1-yl)phenyl)amino)-1H-pyrazole-3-carboxamide]
0.01 to 0.1 µM | 0.1 to 1 µM | 0.1 to 1 µM | 0.1 to 1 µM | NC(=O)c1nn(-c2c(Cl)cccc2Cl)cc1Nc1ccc(C(=O)N2CC[C@H](F)C2)nc1 [compound 355, (S)-1-(2,6-dichlorophenyl)-4-((6-(3-fluoropyrrolidine-1-carbonyl)pyridin-3-yl)amino)-1H-pyrazole-3-carboxamide]
0.01 to 0.1 µM | 0.1 to 1 µM | 0.01 to 0.1 µM | 0.1 to 1 µM | Cc1cccc2nnc(-c3ccc(Nc4cn(-c5c(Cl)cccc5Cl)nc4C(N)=O)cc3)n12 [compound 376, 1-(2,6-dichlorophenyl)-4-((4-(5-methyl-[1,2,4]triazolo[4,3-a]pyridin-3-yl)phenyl)amino)-1H-pyrazole-3-carboxamide]
0.01 to 0.1 µM | 0.1 to 1 µM | 0.01 to 0.1 µM | 0.1 to 1 µM | NC(=O)c1nn(-c2c(Cl)cccc2Cl)cc1Nc1cnn(-c2ncccc2F)c1 [compound 386, 1-(2,6-dichlorophenyl)-4-((1-(3-fluoropyridin-2-yl)-1H-pyrazol-4-yl)amino)-1H-pyrazole-3-carboxamide]

Further lines, the compound ahead of its results:

SMILES | IC50 [1] | IC50 [2] | IC50 [3] | IC50 [4]
NC(=O)c1nn(-c2c(Cl)cccc2Cl)cc1Nc1ccc(-c2nccn2CC(F)(F)F)cc1 [compound 268, 1-(2,6-dichlorophenyl)-4-((4-(1-(2,2,2-trifluoroethyl)-1H-imidazol-2-yl)phenyl)amino)-1H-pyrazole-3-carboxamide] | 0.01 to 0.1 µM | 0.1 to 1 µM | 0.01 to 0.1 µM | 0.1 to 1 µM
NC(=O)c1nn(-c2c(Cl)cccc2Cl)cc1Nc1ccc(N2CCCS2(=O)=O)cc1 [compound 272, 1-(2,6-dichlorophenyl)-4-((4-(1,1-dioxidoisothiazolidin-2-yl)phenyl)amino)-1H-pyrazole-3-carboxamide] | 0.1 to 1 µM | 0.1 to 1 µM | 0.01 to 0.1 µM | 0.1 to 1 µM
N#CC1CN(C(=O)c2ccc(Nc3cn(-c4c(Cl)cccc4Cl)nc3C(N)=O)cc2)C1 [compound 276, 4-((4-(3-cyanoazetidine-1-carbonyl)phenyl)amino)-1-(2,6-dichlorophenyl)-1H-pyrazole-3-carboxamide] | < 0.01 µM | 0.1 to 1 µM | 0.01 to 0.1 µM | 0.1 to 1 µM
CCc1nc(C(F)(F)F)nn1-c1ccc(Nc2cn(-c3c(F)cccc3Cl)nc2C(N)=O)cc1 [compound 283, 1-(2-chloro-6-fluorophenyl)-4-((4-(5-ethyl-3-(trifluoromethyl)-1H-1,2,4-triazol-1-yl)phenyl)amino)-1H-pyrazole-3-carboxamide] | < 0.01 µM | 0.1 to 1 µM | 0.1 to 1 µM | 0.1 to 1 µM
COCc1nc(C(F)(F)F)nn1-c1ccc(Nc2cn(-c3c(F)cccc3F)nc2C(N)=O)cc1 [compound 299, 1-(2,6-difluorophenyl)-4-((4-(5-(methoxymethyl)-3-(trifluoromethyl)-1H-1,2,4-triazol-1-yl)phenyl)amino)-1H-pyrazole-3-carboxamide] | < 0.01 µM | 0.1 to 1 µM | 0.1 to 1 µM | 0.1 to 1 µM
CCn1cc(C(F)(F)F)nc1-c1ccc(Nc2cn(-c3c(F)cccc3Cl)nc2C(N)=O)cc1 [compound 303, 1-(2-chloro-6-fluorophenyl)-4-((4-(1-ethyl-4-(trifluoromethyl)-1H-imidazol-2-yl)phenyl)amino)-1H-pyrazole-3-carboxamide] | 0.01 to 0.1 µM | 0.1 to 1 µM | 0.01 to 0.1 µM | 0.1 to 1 µM
CCn1cc(C(F)(F)F)nc1-c1ccc(Nc2cn(-c3c(F)cccc3F)nc2C(N)=O)cc1 [compound 304, 1-(2,6-difluorophenyl)-4-((4-(1-ethyl-4-(trifluoromethyl)-1H-imidazol-2-yl)phenyl)amino)-1H-pyrazole-3-carboxamide] | 0.01 to 0.1 µM | 0.01 to 0.1 µM | 0.1 to 1 µM | 0.01 to 0.1 µM
CCn1cc(C#N)nc1-c1ccc(Nc2cn(-c3c(Cl)cccc3Cl)nc2C(N)=O)cc1 [compound 310, 4-((4-(4-cyano-1-ethyl-1H-imidazol-2-yl)phenyl)amino)-1-(2,6-dichlorophenyl)-1H-pyrazole-3-carboxamide] | 0.01 to 0.1 µM | 0.1 to 1 µM | 0.01 to 0.1 µM | 0.1 to 1 µM
N#Cc1cn(CCO)c(-c2ccc(Nc3cn(-c4c(Cl)cccc4Cl)nc3C(N)=O)cn2)n1 [compound 387, 4-((6-(4-cyano-1-(2-hydroxyethyl)-1H-imidazol-2-yl)pyridin-3-yl)amino)-1-(2,6-dichlorophenyl)-1H-pyrazole-3-carboxamide] | 0.01 to 0.1 µM | 0.1 to 1 µM | 0.01 to 0.1 µM | 0.1 to 1 µM
Cc1cccc2nnc(-c3ccc(Nc4cn(-c5c(Cl)cccc5Cl)nc4C(N)=O)cn3)n12 [compound 388, 1-(2,6-dichlorophenyl)-4-((6-(5-methyl-[1,2,4]triazolo[4,3-a]pyridin-3-yl)pyridin-3-yl)amino)-1H-pyrazole-3-carboxamide] | 0.01 to 0.1 µM | 0.1 to 1 µM | 0.01 to 0.1 µM | 0.1 to 1 µM
Cc1cnnn1-c1ccc(Nc2cn(-c3c(Cl)cccc3Cl)nc2C(N)=O)cc1 [compound 391, 1-(2,6-dichlorophenyl)-4-((4-(5-methyl-1H-1,2,3-triazol-1-yl)phenyl)amino)-1H-pyrazole-3-carboxamide] | 0.01 to 0.1 µM | 0.1 to 1 µM | 0.01 to 0.1 µM | 0.1 to 1 µM
